The results in this text go back to patent US20100035888A1, “Diaryl Urea for Treating Pulmonary Hypertension” (Bater Healthcare AG, priority 2005, published 2010).

This experiment relates to monocrotaline-treated rats with pulmonary hypertension. In words: Pulmonary artery pressure in monocrotaline treated rats (MCT-induced pulmonary arterial hypertension). Type of experiment: in vivo, rat. Particulars: 3 mg/kg by gavage once daily from day 14 to day 28 after MCT. As to the method: The effects of the compounds and drug combinations according to the invention are tested in vitro on isolated rat pulmonary arteries and in vivo in monocrotaline-treated rats with pulmonary hypertension.
Male Sprague Dawley rats (250-300 g) are treated with monocrotaline 60 mg/kg subcutanously (=day 0). On day 14 after monocrotaline injection treatment the compound/combination to be tested is administered. On day 28 hemodynamic parameters, i.e. right ventricular pressure, systemic blood pressure, heart rate, arterial and venous oxygen saturation are measured and compared with untreated control animals.
Monocrotaline (MCT) treated rats are randomized to receive 4{4-[3-(4-chloro-3-trifluoromethylphenyl)-ureido]-3-fluorophenoxy}-pyridine-2-carboxylic acid methylamide 3 mg/kg or vehicle by gavage once daily after the onset of moderate pulmonary arterial hypertension starting 14 days after the injection of MCT until day 28. […]

For `CNC(=O)c1cc(Oc2ccc(NC(=O)Nc3ccc(Cl)c(C(F)(F)F)c3)c(F)c2)ccn1` [BAY73-4506, 4{4-[3-(4-chloro-3-trifluoromethylphenyl)-ureido]-3-fluorophenoxy}-pyridine-2-carboxylic acid methylamide], the mortality rate (control 0%, placebo 40%) stood at 0%. The “right ventricle/left ventricle+septum ratio (right ventricular hypertrophy)” value (mean±SEM, control 0.25±0.01, placebo 0.62±0.02) was found to be 0.28±0.01.
